The values below are quoted from earlier work in patent US20040005304A1, “Novel compositions and methods for treating neurological disorders and associated gastrointestinal conditions” (MAK Wood, Inc., priority 2002, published 2004).

The series deals with DPPIV. The note with it: cultured mouse intestinal wall cells (enterocyte cells).

Regarding `O=C[C@H](O)[C@@H](O)[C@@H](O)[C@H](O)CO` [galactose], the “expression of DPPIV” value is on record as “increase the expression of DPPIV”.
